Earlier results in patent US20070081962A1, “Novel delivery of immune response modifiers for removal of chronic tattoos” (priority 2005, published 2007).

Tested on: freshly applied tattoos
Settings: guinea pigs tattooed with commonly used tattoo inks; topical 5% cream, initiated within six hours of the tattoo application and continued for seven days

## CC(C)Cn1cnc2c(N)nc3ccccc3c21 [irmiquimod, 1-(2-methylpropyl)-1H-imidazo[4,5-c]quinolin-4-amine]
  removal of freshly applied tattoos: effective for removing freshly applied tattoos
